# Laboratory results as given in ChEMBL document CHEMBL1201862, “PubChem BioAssay data set” (2004).
#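 Five concentrations, 48 hours, 96-well plates. Here, GI50 denotes the concentration required for 50% inhibition of growth.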 Active and inactive are the calls of the source. Rule as the data show it: active = GI50 up to about 1.1 µM and inactive = higher.
# Tests used:
# Test in all cases: NCI-60 cell line screen, 48 h
# NCI-H522 = system: NCI-H522
# A549 = system: A549
# MDA-MB-435 = system: MDA-MB-435
# KM12 = system: KM12
# T47D = system: T47D
# NCI-H460 = system: NCI-H460
# SK-OV-3 = system: SK-OV-3
# MCF7 = system: MCF7
# OVCAR-5 = system: OVCAR-5
# OVCAR-4 = system: OVCAR-4
# K562 = system: K562
# SW-620 = system: SW-620
# SR = system: SR
# PC-3 = system: PC-3
# HT-29 = system: HT-29
# Malme-3M = system: Malme-3M
# TK-10 = system: TK-10
# HCT-116 = system: HCT-116
# EKVX = system: EKVX
# NCI/ADR-RES = system: NCI/ADR-RES
# HOP-62 = system: HOP-62
# LOX IMVI = system: LOX IMVI
# NCI-H23 = system: NCI-H23
# A498 = system: A498
# IGROV-1 = system: IGROV-1
# M14 = system: M14
# UACC-257 = system: UACC-257
# SNB-19 = system: SNB-19
# UACC-62 = system: UACC-62
# MOLT-4 = system: MOLT-4
# SK-MEL-2 = system: SK-MEL-2
# BT-549 = system: BT-549
# OVCAR-8 = system: OVCAR-8
# RPMI-8226 = system: RPMI-8226
# HCT-15 = system: HCT-15
# NCI-H226 = system: NCI-H226
# CAKI-1 = system: CAKI-1
# OVCAR-3 = system: OVCAR-3
# MDA-MB-231 = system: MDA-MB-231
# MDA-N = system: MDA-N
# UO-31 = system: UO-31
# Hs-578T = system: Hs-578T
# SK-MEL-5 = system: SK-MEL-5
# DU-145 = system: DU-145
# SF-295 = system: SF-295
# SK-MEL-28 = system: SK-MEL-28
# CCRF-CEM = system: CCRF-CEM
# SN12C = system: SN12C
# HCC 2998 = system: HCC 2998
# SF-268 = system: SF-268
# ACHN = system: ACHN
# 786-0 = system: 786-0
# U-251 = system: U-251
# SNB-75 = system: SNB-75
# RXF 393 = system: RXF 393
# COLO 205 = system: COLO 205
# HL-60 = system: HL-60
smiles,measurement,setting,value
C/C(=N/Nc1nc(C)cc(O)n1)C(=O)O,GI50,NCI-H522,> 100 µM (inactive)
same,GI50,A549,> 100 µM (inactive)
same,GI50,MDA-MB-435,> 100 µM (inactive)
same,GI50,KM12,> 100 µM (inactive)
same,GI50,T47D,> 100 µM (inactive)
same,GI50,NCI-H460,> 100 µM (inactive)
same,GI50,SK-OV-3,> 100 µM (inactive)
same,GI50,MCF7,> 100 µM (inactive)
same,GI50,OVCAR-5,> 100 µM (inactive)
same,GI50,OVCAR-4,> 100 µM (inactive)
same,GI50,K562,> 100 µM (inactive)
same,GI50,SW-620,> 100 µM (inactive)
same,GI50,SR,> 100 µM (inactive)
same,GI50,PC-3,> 100 µM (inactive)
same,GI50,HT-29,> 100 µM (inactive)
same,GI50,Malme-3M,> 100 µM (inactive)
same,GI50,TK-10,> 100 µM (inactive)
same,GI50,HCT-116,> 100 µM (inactive)
same,GI50,EKVX,> 100 µM (inactive)
same,GI50,NCI/ADR-RES,> 100 µM (inactive)
same,GI50,HOP-62,> 100 µM (inactive)
same,GI50,LOX IMVI,> 100 µM (inactive)
same,GI50,NCI-H23,> 100 µM (inactive)
same,GI50,A498,> 100 µM (inactive)
same,GI50,IGROV-1,> 100 µM (inactive)
same,GI50,M14,> 100 µM (inactive)
same,GI50,UACC-257,> 100 µM (inactive)
same,GI50,SNB-19,> 100 µM (inactive)
same,GI50,UACC-62,> 100 µM (inactive)
same,GI50,MOLT-4,> 100 µM (inactive)
same,GI50,SK-MEL-2,> 100 µM (inactive)
same,GI50,BT-549,> 100 µM (inactive)
same,GI50,OVCAR-8,> 100 µM (inactive)
same,GI50,RPMI-8226,> 100 µM (inactive)
same,GI50,HCT-15,> 100 µM
same,GI50,NCI-H226,> 100 µM (inactive)
same,GI50,CAKI-1,> 100 µM (inactive)
same,GI50,OVCAR-3,> 100 µM (inactive)
same,GI50,MDA-MB-231,> 100 µM (inactive)
same,GI50,MDA-N,> 100 µM (inactive)
same,GI50,UO-31,> 100 µM (inactive)
same,GI50,Hs-578T,> 100 µM (inactive)
same,GI50,SK-MEL-5,> 100 µM (inactive)
same,GI50,DU-145,> 100 µM (inactive)
same,GI50,SF-295,> 100 µM (inactive)
same,GI50,SK-MEL-28,> 100 µM (inactive)
same,GI50,CCRF-CEM,> 100 µM (inactive)
same,GI50,SN12C,19 µM (inactive)
same,GI50,HCC 2998,> 100 µM (inactive)
same,GI50,SF-268,> 100 µM (inactive)
same,GI50,ACHN,> 100 µM (inactive)
same,GI50,786-0,> 100 µM (inactive)
same,GI50,U-251,> 100 µM (inactive)
same,GI50,SNB-75,> 100 µM (inactive)
same,GI50,RXF 393,> 100 µM (inactive)
same,GI50,COLO 205,> 100 µM (inactive)
same,GI50,HL-60,> 100 µM (inactive)
